# ChEMBL document CHEMBL1212924 (J Med Chem, 2010)
# Active and inactive are the calls of the source. No cut-off for these calls is given here.
# Columns and labels:
# [1] = target: Rho-associated protein kinase 2 (Homo sapiens, UniProt O75116)
# [2] = in vitro; conditions: human, liver microsomes
# Description: Half life in human liver microsome at 2 mg/mL
# [3] = target: Serine/threonine-protein kinase 38 (Homo sapiens) (UniProt Q15208); test: Inhibition of NDR1 at 3 uM
# [4] = target: Serine/threonine-protein kinase MRCK beta (Homo sapiens) (UniProt Q9Y5S2); test: Inhibition of MRCKbeta at 3 uM
# [5] = target: CYP2C9 (Homo sapiens, UniProt P11712); test: Inhibition of CYP2C9 at 10 uM; assay type: ADME
# [6] = target: Serine/threonine-protein kinase MRCK alpha (Homo sapiens, UniProt Q5VT25); test: Inhibition of MRCKalpha
# [7] = target: Mitogen-activated protein kinase 10 (Homo sapiens, UniProt P53779)
# [8] = target: Dual specificity protein kinase CLK1 (Homo sapiens) (UniProt P49759); test: Inhibition of CLK1 at 3 uM
# [9] = target: Serine/threonine-protein kinase 33 (Homo sapiens) (UniProt Q9BYT3); test: Inhibition of STK33 at 3 uM
# [10] = target: CYP3A4 (Homo sapiens, UniProt P08684); test: Inhibition of CYP3A4 at 10 uM; assay type: ADME
# [11] = target: T1, CYP1A2 (Homo sapiens, UniProt P05177); test: Inhibition of CYP1A2 at 10 uM; assay type: ADME
# T1 sequence (P05177 whole entry): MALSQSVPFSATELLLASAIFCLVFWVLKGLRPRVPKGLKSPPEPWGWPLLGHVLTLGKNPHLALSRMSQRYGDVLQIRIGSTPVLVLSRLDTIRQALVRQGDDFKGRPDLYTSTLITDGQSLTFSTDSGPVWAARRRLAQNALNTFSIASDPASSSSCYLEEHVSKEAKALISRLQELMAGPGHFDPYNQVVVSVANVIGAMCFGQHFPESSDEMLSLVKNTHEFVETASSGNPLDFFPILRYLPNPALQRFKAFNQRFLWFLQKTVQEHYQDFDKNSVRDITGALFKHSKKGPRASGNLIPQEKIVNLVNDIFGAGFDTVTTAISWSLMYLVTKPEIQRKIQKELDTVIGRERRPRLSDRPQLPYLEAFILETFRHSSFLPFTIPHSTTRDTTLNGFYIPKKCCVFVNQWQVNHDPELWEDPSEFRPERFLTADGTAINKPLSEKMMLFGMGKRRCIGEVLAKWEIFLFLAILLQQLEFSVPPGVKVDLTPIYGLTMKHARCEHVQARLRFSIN
# [12] = Oral bioavailability in rat at 2 mg/kg; assay type: ADME, organism-based; conditions: in vivo
# [13] = target: T2, Serine/threonine-protein kinase LATS2 (Homo sapiens) (UniProt Q9NRM7); test: Inhibition of Lats2 at 3 uM
# T2 sequence (whole entry): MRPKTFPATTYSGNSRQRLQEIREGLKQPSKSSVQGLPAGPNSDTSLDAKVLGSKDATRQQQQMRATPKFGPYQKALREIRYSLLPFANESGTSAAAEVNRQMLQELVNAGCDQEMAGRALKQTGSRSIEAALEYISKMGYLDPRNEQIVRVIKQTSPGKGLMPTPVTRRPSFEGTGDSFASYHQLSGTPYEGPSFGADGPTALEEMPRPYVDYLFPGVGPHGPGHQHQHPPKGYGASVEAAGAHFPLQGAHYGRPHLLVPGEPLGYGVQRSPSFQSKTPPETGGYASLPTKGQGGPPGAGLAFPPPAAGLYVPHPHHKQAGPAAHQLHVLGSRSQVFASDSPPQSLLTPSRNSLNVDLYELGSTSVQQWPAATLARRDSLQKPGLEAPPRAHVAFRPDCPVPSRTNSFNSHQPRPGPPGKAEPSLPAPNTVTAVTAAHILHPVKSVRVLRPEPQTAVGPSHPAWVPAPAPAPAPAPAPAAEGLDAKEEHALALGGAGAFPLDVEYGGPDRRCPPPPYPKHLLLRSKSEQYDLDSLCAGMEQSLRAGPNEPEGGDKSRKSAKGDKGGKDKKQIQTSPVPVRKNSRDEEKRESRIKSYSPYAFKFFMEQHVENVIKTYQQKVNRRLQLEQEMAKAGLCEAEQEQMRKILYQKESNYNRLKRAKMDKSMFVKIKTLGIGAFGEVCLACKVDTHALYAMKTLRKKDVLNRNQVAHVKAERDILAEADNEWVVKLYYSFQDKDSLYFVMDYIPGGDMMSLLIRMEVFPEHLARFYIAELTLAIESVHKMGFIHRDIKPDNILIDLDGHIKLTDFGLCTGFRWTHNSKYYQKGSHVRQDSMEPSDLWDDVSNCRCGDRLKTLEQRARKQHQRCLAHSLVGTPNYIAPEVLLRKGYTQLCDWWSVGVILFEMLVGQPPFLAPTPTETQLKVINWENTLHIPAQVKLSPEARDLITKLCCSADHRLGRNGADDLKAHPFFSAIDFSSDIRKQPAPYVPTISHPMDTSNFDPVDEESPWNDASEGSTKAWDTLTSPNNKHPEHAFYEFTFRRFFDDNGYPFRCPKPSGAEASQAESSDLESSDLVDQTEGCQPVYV
# [14] = Clearance in rat at 1 mg/kg, iv and 2 mg/kg, po; assay type: ADME, organism-based; conditions: in vivo
# [15] = Volume of distribution in rat at 1 mg/kg, iv and 2 mg/kg, po; assay type: ADME, organism-based; conditions: in vivo
# [16] = target: Dual specificity protein kinase CLK4 (Homo sapiens) (UniProt Q9HAZ1); test: Inhibition of CLK4 at 3 uM
# [17] = target: Rho-associated protein kinase 1 (Homo sapiens, UniProt Q13464)
# [18] = test system: Rattus norvegicus; test: Reduction in intraocular pressure in Brown norway rat at 40 ug administered as drops in eye after 2 hrs; assay type: functional, organism-based
# [19] = Half life in rat at 1 mg/kg, iv and 2 mg/kg, po; assay type: ADME, organism-based; conditions: in vivo
# [20] = Inhibition of p38
# [21] = target: CYP2D6 (Homo sapiens, UniProt P10635); test: Inhibition of CYP2D6 at 10 uM; assay type: ADME
# [22] = target: Phosphatidylinositol 4,5-bisphosphate 3-kinase catalytic subunit beta isoform (Homo sapiens) (UniProt P42338); test: Inhibition of PI3Kbeta at 3 uM
# [23] = Cmax in rat at 2 mg/kg, po; assay type: ADME, organism-based; set-up: dose 2 mg/kg, route oral; conditions: in vivo
# CYP3A4, sequence (P08684 whole entry): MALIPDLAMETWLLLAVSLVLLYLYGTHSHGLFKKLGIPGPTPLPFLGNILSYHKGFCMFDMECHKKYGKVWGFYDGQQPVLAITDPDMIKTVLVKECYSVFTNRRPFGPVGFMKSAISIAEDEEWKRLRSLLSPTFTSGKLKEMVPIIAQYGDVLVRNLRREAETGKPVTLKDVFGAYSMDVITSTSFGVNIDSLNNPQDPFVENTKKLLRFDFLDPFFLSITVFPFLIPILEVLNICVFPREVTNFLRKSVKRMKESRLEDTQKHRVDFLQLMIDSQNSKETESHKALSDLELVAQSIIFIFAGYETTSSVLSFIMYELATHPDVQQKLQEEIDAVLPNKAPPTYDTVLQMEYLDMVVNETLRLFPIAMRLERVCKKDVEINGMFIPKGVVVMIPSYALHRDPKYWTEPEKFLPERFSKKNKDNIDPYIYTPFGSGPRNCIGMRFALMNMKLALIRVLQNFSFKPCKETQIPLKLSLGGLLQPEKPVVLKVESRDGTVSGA
# Rho-associated protein kinase 1, sequence (Q13464 whole entry): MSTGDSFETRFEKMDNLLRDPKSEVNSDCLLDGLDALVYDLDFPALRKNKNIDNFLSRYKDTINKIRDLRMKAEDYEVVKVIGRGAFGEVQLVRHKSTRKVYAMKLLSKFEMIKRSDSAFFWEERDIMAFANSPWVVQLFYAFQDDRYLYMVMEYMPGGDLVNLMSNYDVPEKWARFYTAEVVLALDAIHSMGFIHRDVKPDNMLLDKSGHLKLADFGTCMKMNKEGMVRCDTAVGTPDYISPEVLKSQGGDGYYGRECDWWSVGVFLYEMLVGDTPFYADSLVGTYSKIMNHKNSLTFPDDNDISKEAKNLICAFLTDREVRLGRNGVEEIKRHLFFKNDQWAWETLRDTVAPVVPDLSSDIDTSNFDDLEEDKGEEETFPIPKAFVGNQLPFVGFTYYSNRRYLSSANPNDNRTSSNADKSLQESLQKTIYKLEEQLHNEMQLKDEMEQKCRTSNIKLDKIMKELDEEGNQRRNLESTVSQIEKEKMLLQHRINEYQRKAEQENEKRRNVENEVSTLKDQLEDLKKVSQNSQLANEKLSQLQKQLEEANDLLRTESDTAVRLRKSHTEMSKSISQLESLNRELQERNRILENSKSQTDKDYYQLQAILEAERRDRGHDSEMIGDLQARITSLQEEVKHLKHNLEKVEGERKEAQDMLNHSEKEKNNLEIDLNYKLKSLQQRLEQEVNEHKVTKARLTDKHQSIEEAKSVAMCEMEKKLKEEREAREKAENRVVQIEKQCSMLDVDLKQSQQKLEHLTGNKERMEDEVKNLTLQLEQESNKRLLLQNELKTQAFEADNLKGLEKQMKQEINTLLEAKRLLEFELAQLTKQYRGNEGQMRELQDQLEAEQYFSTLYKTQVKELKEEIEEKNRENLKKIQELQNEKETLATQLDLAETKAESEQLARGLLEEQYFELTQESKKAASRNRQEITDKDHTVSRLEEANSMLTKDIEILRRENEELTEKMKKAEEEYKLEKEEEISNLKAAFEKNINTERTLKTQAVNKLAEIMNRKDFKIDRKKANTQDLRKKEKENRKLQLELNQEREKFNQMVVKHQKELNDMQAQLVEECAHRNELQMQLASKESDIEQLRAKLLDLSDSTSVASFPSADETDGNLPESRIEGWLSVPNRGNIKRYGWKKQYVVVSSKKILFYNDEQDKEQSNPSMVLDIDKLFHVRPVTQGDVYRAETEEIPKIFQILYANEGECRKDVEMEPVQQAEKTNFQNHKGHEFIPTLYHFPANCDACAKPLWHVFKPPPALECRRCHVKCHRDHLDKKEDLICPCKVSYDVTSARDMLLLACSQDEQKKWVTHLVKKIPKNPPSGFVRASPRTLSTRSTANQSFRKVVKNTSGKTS
# Rho-associated protein kinase 2, sequence (O75116 whole entry): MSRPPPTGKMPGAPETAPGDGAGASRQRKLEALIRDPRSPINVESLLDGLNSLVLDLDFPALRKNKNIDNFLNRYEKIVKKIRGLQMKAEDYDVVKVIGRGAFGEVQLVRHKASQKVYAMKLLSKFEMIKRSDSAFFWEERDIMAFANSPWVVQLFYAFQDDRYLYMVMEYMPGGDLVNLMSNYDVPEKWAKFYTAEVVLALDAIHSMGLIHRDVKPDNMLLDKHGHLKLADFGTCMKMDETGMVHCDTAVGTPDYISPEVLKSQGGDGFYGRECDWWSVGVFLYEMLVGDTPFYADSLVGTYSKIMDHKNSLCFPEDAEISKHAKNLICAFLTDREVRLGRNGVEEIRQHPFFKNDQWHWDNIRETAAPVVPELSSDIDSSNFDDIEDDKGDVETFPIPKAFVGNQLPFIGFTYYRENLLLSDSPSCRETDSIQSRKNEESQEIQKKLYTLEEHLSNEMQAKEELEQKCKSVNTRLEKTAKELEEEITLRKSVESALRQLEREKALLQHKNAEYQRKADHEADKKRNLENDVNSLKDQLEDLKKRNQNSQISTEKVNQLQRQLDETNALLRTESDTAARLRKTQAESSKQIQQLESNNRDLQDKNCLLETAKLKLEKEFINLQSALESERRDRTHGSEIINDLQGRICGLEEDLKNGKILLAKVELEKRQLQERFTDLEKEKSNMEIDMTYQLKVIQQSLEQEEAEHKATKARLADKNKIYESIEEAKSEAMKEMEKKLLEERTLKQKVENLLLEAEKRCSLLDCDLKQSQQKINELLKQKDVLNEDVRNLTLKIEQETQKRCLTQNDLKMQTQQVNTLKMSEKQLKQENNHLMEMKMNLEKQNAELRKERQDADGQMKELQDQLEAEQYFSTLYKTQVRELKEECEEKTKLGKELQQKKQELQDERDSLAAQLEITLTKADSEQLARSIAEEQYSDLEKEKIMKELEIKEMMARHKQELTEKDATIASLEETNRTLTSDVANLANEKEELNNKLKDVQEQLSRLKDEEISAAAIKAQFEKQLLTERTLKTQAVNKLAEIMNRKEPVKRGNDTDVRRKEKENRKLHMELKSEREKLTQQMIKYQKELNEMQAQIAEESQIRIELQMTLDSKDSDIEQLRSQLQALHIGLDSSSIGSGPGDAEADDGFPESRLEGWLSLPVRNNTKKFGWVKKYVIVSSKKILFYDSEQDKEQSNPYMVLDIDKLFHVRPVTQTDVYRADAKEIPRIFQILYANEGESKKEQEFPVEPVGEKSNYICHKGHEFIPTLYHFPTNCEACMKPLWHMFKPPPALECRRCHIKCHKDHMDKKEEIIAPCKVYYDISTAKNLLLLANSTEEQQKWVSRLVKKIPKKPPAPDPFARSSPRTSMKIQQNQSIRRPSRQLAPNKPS
# Serine/threonine-protein kinase MRCK alpha, sequence (Q5VT25 whole entry): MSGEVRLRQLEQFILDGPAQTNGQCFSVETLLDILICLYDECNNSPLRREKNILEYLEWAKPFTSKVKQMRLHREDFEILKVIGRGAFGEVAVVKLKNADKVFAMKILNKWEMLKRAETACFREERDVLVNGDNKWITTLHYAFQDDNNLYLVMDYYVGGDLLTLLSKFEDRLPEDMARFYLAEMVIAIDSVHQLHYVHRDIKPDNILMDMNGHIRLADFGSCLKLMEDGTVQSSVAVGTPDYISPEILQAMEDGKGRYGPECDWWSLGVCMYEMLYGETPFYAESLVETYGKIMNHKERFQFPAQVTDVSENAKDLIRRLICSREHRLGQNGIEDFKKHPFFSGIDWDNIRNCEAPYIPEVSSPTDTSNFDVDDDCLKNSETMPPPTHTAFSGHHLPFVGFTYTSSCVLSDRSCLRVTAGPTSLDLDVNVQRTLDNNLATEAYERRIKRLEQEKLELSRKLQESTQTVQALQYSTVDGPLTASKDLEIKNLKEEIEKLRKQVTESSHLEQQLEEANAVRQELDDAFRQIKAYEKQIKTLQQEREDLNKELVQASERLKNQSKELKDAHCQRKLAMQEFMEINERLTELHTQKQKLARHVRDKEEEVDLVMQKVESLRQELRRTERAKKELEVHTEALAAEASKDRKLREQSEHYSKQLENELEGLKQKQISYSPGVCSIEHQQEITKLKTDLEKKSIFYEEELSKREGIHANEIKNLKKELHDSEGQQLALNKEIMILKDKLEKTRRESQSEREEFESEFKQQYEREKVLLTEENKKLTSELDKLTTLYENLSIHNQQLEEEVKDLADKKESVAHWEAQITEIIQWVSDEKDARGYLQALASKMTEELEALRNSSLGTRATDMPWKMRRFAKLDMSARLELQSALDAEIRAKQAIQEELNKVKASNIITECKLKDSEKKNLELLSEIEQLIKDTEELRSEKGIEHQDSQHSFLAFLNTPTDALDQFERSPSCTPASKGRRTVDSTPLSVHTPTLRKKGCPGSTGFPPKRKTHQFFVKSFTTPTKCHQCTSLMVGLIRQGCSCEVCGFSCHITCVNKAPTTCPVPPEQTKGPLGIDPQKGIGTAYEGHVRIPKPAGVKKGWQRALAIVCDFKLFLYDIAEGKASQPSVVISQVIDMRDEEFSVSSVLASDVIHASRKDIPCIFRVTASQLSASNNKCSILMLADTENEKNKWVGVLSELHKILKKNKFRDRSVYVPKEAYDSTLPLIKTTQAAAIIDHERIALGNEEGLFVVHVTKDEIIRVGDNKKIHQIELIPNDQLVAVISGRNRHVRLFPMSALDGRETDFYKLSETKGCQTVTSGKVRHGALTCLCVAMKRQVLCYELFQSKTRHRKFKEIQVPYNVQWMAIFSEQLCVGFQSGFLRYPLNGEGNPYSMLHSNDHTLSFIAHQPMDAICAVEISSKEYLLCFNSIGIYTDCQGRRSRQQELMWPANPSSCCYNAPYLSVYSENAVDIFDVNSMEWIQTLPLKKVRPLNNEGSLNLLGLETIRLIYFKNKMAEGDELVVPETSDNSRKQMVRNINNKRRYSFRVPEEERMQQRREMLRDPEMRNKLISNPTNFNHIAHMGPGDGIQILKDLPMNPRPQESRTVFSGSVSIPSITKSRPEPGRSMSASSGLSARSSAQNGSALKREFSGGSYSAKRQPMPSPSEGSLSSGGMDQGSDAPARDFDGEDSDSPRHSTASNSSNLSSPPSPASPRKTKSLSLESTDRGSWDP
structure (smiles),measurement,setting,value
COc1cccc2c1CNC(C(=O)Nc1ccc(-c3cn[nH]c3)cc1OCCN(C)C)C2 (racemic),IC50,[1],0.261 µM
CN(C)CCOc1cc(-c2cn[nH]c2)ccc1NC(=O)[C@H]1Cc2cc(Cl)ccc2CN1,half-life,[2],2.02 h
COc1ccc2c(c1)C[C@H](C(=O)Nc1ccc(-c3cn[nH]c3)cc1OCC1CCN(C)CC1)NC2,inhibition,[3],72%
same,inhibition,[4],77%
same,inhibition at 10 µM,[5],45%
same,IC50,[6],0.669 µM
same,IC50,[7],> 20 µM
same,inhibition,[8],86%
same,inhibition,[9],66%
same,inhibition at 10 µM,[10],15%
same,inhibition at 10 µM,[11],3%
same,bioavailability,[12],0%
same,inhibition,[13],75%
same,clearance,[14],2.46 L/h/kg
same,Vd,[15],9.5 L/kg
same,inhibition,[16],91%
same,half-life,[2],1.02 h
same,IC50,[17],0.01 µM
same,Activity,[18],Active
same,half-life,[19],3.4 h
same,IC50,[20],> 20 µM
same,inhibition at 10 µM,[21],52%
same,inhibition,[22],74%
COCCOc1cc(-c2cn[nH]c2)ccc1NC(=O)[C@H]1Cc2cc(OC)ccc2CN1,half-life,[2],0.717 h
COc1ccc2c(c1)C[C@H](C(=O)Nc1ccc(-c3cn[nH]c3)c(F)c1OCCN(C)C)NC2,half-life,[2],1.2 h
COc1ccc2c(c1)C[C@H](C(=O)Nc1ccc(-c3cn[nH]c3)cc1OCCN(C)C)NC2,Cmax,[23],0.242 µM
same,inhibition at 10 µM,[5],31%
same,IC50,[6],5.35 µM
same,IC50,[7],> 20 µM
same,inhibition at 10 µM,[10],-3%
same,inhibition at 10 µM,[11],21%
same,bioavailability,[12],28%
same,clearance,[14],1.02 L/h/kg
same,Vd,[15],7.2 L/kg
same,IC50,[17],0.048 µM
same,half-life,[19],5.5 h
same,IC50,[20],> 20 µM
same,inhibition at 10 µM,[21],40%
COc1ccc2c(c1)C[C@H](C(=O)Nc1ccc(-c3cn[nH]c3)cc1)NC2,IC50,[1],0.334 µM
NC(C(=O)Nc1ccc(-c2cn[nH]c2)cc1)c1ccc(Cl)cc1 (configuration not stated),half-life,[2],1.4 h
CN(C)CCOc1cc(-c2cn[nH]c2)ccc1NC(=O)C1NCCc2ccccc21 (configuration not stated),half-life,[2],0.233 h
NC(Cc1ccc(Cl)cc1)C(=O)Nc1ccc(-c2cn[nH]c2)cc1 (configuration not stated),half-life,[2],1.12 h
CN(C)CCOc1cc(-c2cn[nH]c2)c(F)cc1NC(=O)[C@H]1Cc2ccccc2CN1C,half-life,[2],0.267 h
CN(C)CCOc1cc(-c2cn[nH]c2)ccc1NC(=O)[C@@H]1Cc2ccccc2CN1,half-life,[2],1.63 h
COc1ccc2c(c1)C[C@H](C(=O)Nc1ccc(-c3cn[nH]c3)cc1OCCN1CCCC1)NC2,half-life,[2],1.05 h
COc1ccc2c(c1)C[C@H](C(=O)Nc1ccc(-c3cn[nH]c3)cc1OC1CCN(C)CC1)NC2,half-life,[2],1.73 h
COc1ccc2c(c1)C[C@H](C(=O)Nc1c(F)cc(-c3cn[nH]c3)cc1OCCN(C)C)NC2,half-life,[2],1.87 h
N[C@H](Cc1cccc(F)c1)C(=O)Nc1ccc(-c2cn[nH]c2)cc1,half-life,[2],1.12 h
CCN1Cc2ccccc2C[C@@H]1C(=O)Nc1cc(F)c(-c2cn[nH]c2)cc1OCCN(C)C,inhibition at 10 µM,[5],70%
same,IC50,[6],0.81 µM
same,IC50,[7],> 20 µM
same,inhibition at 10 µM,[10],39%
same,inhibition at 10 µM,[11],-24%
same,half-life,[2],0.0167 h
same,IC50,[17],0.016 µM
same,IC50,[20],> 20 µM
same,inhibition at 10 µM,[21],52%
COc1ccc2c(c1)C[C@H](C(=O)Nc1ccc(-c3cn[nH]c3)cc1SCCN(C)C)NC2,half-life,[2],0.367 h
CCOc1ccc2c(c1)CC(C(=O)Nc1ccc(-c3cn[nH]c3)cc1OCCN(C)C)NC2 (racemic),IC50,[1],0.156 µM
COc1ccc2c(c1)C[C@@H](C(=O)Nc1ccc(-c3cn[nH]c3)cc1OCCN(C)C)NC2,half-life,[2],1.68 h
COc1ccc2c(c1)CN[C@@H](C(=O)Nc1ccc(-c3cn[nH]c3)cc1OCCN(C)C)C2,IC50,[1],0.85 µM
CN(C)CCOc1cc(-c2cn[nH]c2)c(F)cc1NC(=O)[C@H]1Cc2ccccc2CN1C(=O)CN(C)C,IC50,[1],0.775 µM
same,half-life,[2],0.233 h
CN(C)CCOc1cc(-c2cn[nH]c2)ccc1NC(=O)[C@H]1Cc2ccccc2CN1,half-life,[2],1.63 h
COc1ccc2c(c1)C[C@H](C(=O)Nc1cc(F)c(-c3cn[nH]c3)cc1OCCN(C)C)NC2,Cmax,[23],0.032 µM
same,bioavailability,[12],0.3%
same,clearance,[14],0.276 L/h/kg
same,Vd,[15],0.49 L/kg
same,half-life,[2],0.85 h
same,half-life,[19],1.5 h
CN(C)CCOc1cc(-c2cn[nH]c2)c(F)cc1NC(=O)[C@H]1Cc2ccccc2CN1,Cmax,[23],0.018 µM
same,inhibition at 10 µM,[5],62%
same,IC50,[6],0.333 µM
same,IC50,[7],> 20 µM
same,inhibition at 10 µM,[10],18%
same,inhibition at 10 µM,[11],31%
same,bioavailability,[12],16%
same,clearance,[14],6.36 L/h/kg
same,Vd,[15],24 L/kg
same,half-life,[2],0.75 h
same,IC50,[17],0.033 µM
same,half-life,[19],2.7 h
same,IC50,[20],> 20 µM
same,inhibition at 10 µM,[21],77%
COc1ccc2c(c1)C[C@H](C(=O)Nc1ccc(-c3c[nH]nc3C)cc1SCCN(C)C)NC2,half-life,[2],0.183 h
COc1ccc2c(c1)C[C@H](C(=O)Nc1ccc(-c3cn[nH]c3)cc1SCCC(=O)N(C)C)NC2,half-life,[2],0.05 h
CN(C)CCOc1cc(-c2cn[nH]c2)c(F)cc1NC(=O)[C@H]1Cc2ccccc2CN1CC1CC1,bioavailability,[12],0%
same,clearance,[14],2.52 L/h/kg
same,Vd,[15],7 L/kg
same,half-life,[2],0.05 h
same,half-life,[19],2.3 h
CN(C)CCOc1cc(-c2cn[nH]c2)ccc1NC(=O)[C@@H]1Cc2cc(Cl)ccc2CN1,half-life,[2],0.283 h
CCN1Cc2ccc(OC)cc2C[C@@H]1C(=O)Nc1cc(F)c(-c2cn[nH]c2)cc1OCCN(C)C,bioavailability,[12],0%
same,clearance,[14],7.8 L/h/kg
same,Vd,[15],17 L/kg
same,half-life,[2],0.183 h
same,half-life,[19],1.7 h
